For data set [1], the target named is T1, hA3AR (Homo sapiens, UniProt P0DMS8).
T1 sequence (P0DMS8 1-318): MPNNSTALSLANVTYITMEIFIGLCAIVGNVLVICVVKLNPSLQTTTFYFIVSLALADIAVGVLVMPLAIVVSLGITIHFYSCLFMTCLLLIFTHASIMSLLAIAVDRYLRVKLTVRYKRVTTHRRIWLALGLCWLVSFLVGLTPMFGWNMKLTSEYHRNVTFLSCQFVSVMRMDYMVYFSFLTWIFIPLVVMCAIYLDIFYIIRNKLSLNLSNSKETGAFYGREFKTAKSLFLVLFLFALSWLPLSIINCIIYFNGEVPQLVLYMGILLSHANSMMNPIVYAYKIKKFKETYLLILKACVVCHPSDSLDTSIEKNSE
Nature of the data set: Radioligand binding at hA3AR. To be noted: replacement of 2-Cl with 2-H.

Data set [2] has as its target T2, hA1AR (Homo sapiens, UniProt P30542).
T2 sequence (P30542 1-326): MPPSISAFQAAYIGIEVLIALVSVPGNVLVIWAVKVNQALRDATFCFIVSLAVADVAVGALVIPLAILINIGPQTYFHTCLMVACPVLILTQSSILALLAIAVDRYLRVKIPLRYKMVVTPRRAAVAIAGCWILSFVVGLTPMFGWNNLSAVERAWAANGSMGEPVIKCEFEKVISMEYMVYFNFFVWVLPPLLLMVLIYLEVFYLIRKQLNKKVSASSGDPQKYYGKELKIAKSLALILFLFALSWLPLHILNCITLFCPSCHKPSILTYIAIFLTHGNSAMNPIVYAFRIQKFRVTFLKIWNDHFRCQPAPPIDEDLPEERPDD
Nature of the data set: Radioligand binding at hA1AR. To be noted: for AR subtype selectivity in binding (in words): A1, A2A and A3 ARs compared.

In data set [3] the test system is mice. The data set can be described thus: Maximal electroshock. Type of data set: in vivo. To be noted: for MES model, number of animals protected from convulsions: qualitative.
Data set [4] relates to mice. Nature of the data set: Subcutaneous metrazol. The class given is in vivo. Particulars: for scMET model, number of animals protected from convulsions: qualitative.
Data set [5] in a line: in vivo. To be noted: male, CF No 1 albino, mouse, ip.
Data set [6] addresses T2, hA1AR. Type of data set: cell-based. To be noted: for Agonist efficacy at A1AR (in words): cyclic AMP assay, 10 μM.
The test system of data set [7] is mice. The data set can be described thus: 6 Hz minimal clonic seizure test. The class given is in vivo.
The target of data set [8] is T2, hA1AR. To be noted: at 10 μM; relative to 44a (100%); ref Tosh et al.[20] or Gao et al. [21]; cited from earlier work.
In data set [9] the test system is mice. The data set can be described thus: Corneal kindled mouse model of partial seizures. Particulars: i.p. Type of data set: in vivo.
Data set [10] concerns the target rat A1AR. Particulars: read-out: Kd at rat A1AR; cited from earlier work.

Each structure is given as a SMILES string. Where two headings read alike, the source gives them in different places. Where only a bound is given, the exact number is not on record here.

The term inhibition denotes the share of the control response that was lost under treatment. Broadly, the Kd is a measure of binding affinity in units of concentration.

In the case of `O[C@@H]1[C@H](O)[C@@H]2C[C@@H]2[C@H]1n1cnc2c(NC(C3CC3)C3CC3)ncnc21` [Compound 37a], the “Increase of affinity at the A3AR relative to compound 10” value in [1] is 28 fold.

`NNc1nc(NC(C2CC2)C2CC2)c2ncn([C@H]3[C@H](O)[C@H](O)[C@@H]4C[C@@H]43)c2n1` [Compound 40]: the “AR subtype selectivity in binding (in words)” value (from here on “AR subtype selectivity”) in data set [2] is listed as “nonselective”.

Turning to `OC[C@H]1O[C@@H](n2cnc3c(NC4CCCC4)nc(Cl)nc32)[C@H](O)[C@@H]1O` [Compound 44b, 2-chloro-N^6-cyclopentyladenosine, reference compound], the “MES model, number of animals protected from convulsions” value (“MES model, number of animals protected” below) in [3] (1 mg/kg i.p.) was 1 out of 4 at (1 mg/kg). The “scMET model, number of animals protected from convulsions” value (“scMET model, number” below) in data set [4] (1 mg/kg i.p.) is given as 1 out of 4 (1 mg/kg). Moreover, the TD50 at 1 h in data set [5] amounted to 0.84 mg/kg.

On to `O[C@@H]1[C@H](O)[C@@H]2C[C@@H]2[C@H]1n1cnc2c(NC(C3CCCC3)C3CCCC3)nc(Cl)nc21` [Compound 11, (1R,2R,3S,4R,5S)-4-(2-Chloro-6-(dicyclopentylmethylamino)-9H-purin-9-yl)bicyclo[3.1.0]hexane-2,3-diol], for which the inhibition at 10 µM in data set [2] (read-out: % inhibition of radioligand binding, A1, at 10 μM, [3H]R-PIA, CHO cells) is under 50%.

For the molecule `O[C@@H]1[C@H](O)[C@@H]2C[C@@H]2[C@H]1n1cnc2c(NCC(C3CC3)C3CC3)nc(Cl)nc21` [Compound 7, (1R,2R,3S,4R,5S)-4-(2-Chloro-6-(2,2-dicyclopropylethylamino)-9H-purin-9-yl)bicyclo[3.1.0]hexane-2,3-diol], the “AR subtype selectivity” value in data set [2] is given as “nonselective”.

In the case of `CCNC(=O)[C@H]1O[C@@H](n2cnc3c(N)ncnc32)[C@H](O)[C@@H]1O` [Compound 45, 5′-N-ethylcarboxamidoadenosine, reference compound], the “% Inhibition, cyclic AMP, A1 (maximal efficacy)” value in data set [6] (at 10 μM, relative to effect (100%) of full agonist 44a at 10 μM, CHO cells, n = 3–5) was 100±15%. Further, in data set [6], the “Agonist efficacy at A1AR (in words)” value was “full agonist”.

On to `COC(=O)c1cnn(-c2nc(NC(C3CC3)C3CC3)c3ncn([C@H]4[C@H](O)[C@H](O)[C@@H]5C[C@@H]54)c3n2)c1` [Compound 42], for which the “AR subtype selectivity” value in data set [2] was “weak nonselective”.

`NCCNC(=O)Cc1ccc(NC(=O)Cc2ccc(Nc3ncnc4c3ncn4[C@@H]3O[C@H](CO)[C@@H](O)[C@H]3O)cc2)cc1` [Compound 46, N^6-[4-[[[4-[[[(2-Aminoethyl)amino]carbonyl]methyl]anilino]carbonyl]methyl]phenyl]adenosine, reference compound]: in data set [3] (2 mg/kg i.p.), the “MES model, number of animals protected” value is on record as 4 out of 8 (2mg/kg). The “scMET model, number” value in data set [4] (1 mg/kg i.p.) is recorded as 5 out of 8 (1 mg/kg).

Turning to `O[C@@H]1[C@H](O)[C@@H]2C[C@@H]2[C@H]1n1cnc2c(N[C@H](c3ccccc3)C3CC3)nc(Cl)nc21` [Compound 21, (1R,2R,3S,4R,5S)-4-(2-Chloro-6-((S)-cyclopropylphenylmethylamino)-9H-purin-9-yl)bicyclo[3.1.0]hexane-2,3-diol], in [2], the “AR subtype selectivity” value is “bound weakly at the three ARs”.

In the case of `CC(C)[C@@H](Nc1nc(Cl)nc2c1ncn2[C@H]1[C@H](O)[C@H](O)[C@@H]2C[C@@H]21)C1CC1` [Compound 14, (1R,2R,3S,4R,5S)-4-(2-Chloro-6-((R)-1-cyclopropyl-2-methyl-propylamino)-9H-purin-9-yl)bicyclo[3.1.0]hexane-2,3-diol], the “AR subtype selectivity” value in data set [2] is on record as “moderately selective for the A1AR”.

On to `O[C@@H]1[C@H](O)[C@@H]2C[C@@H]2[C@H]1n1cnc2c(N[C@@H](c3ccccc3)C3CC3)nc(Cl)nc21` [Compound 20, (1R,2R,3S,4R,5S)-4-(2-Chloro-6-((R)-cyclopropylphenylmethylamino)-9H-purin-9-yl)bicyclo[3.1.0]hexane-2,3-diol], for which the “Agonist efficacy at A1AR (in words)” value in [6] is reported as “did not activate the A1AR”. Also, in [2], the “AR subtype selectivity” value is “bound weakly at the three ARs”.

Turning to `O=C(O)c1cnn(-c2nc(NC(C3CC3)C3CC3)c3ncn([C@H]4[C@H](O)[C@H](O)[C@@H]5C[C@@H]54)c3n2)c1` [Compound 43], in [2], the “AR subtype selectivity” value is “weak nonselective”.

Regarding `O[C@@H]1[C@H](O)[C@@H]2C[C@@H]2[C@H]1n1cnc2c(NC(C3CC3)C3CC3)nc(Cl)nc21` [Compound 10], the “MES model, number of animals protected” value in data set [3] (3 mg/kg i.p.) is reported as 1 out of 4 (3 mg/kg). Moreover, in data set [3] (i.p.), the “Response in MES model (in words)” value is “inactive”. Moreover, the “scMET model, number” value in data set [4] (3 mg/kg i.p.) is recorded as “No protection (3 mg/kg)”. Moreover, the “Response in scMET model (in words)” value in [4] (i.p.) is “inactive”. Also, the “Agonist efficacy at A1AR (in words)” value in [6] is given as “full agonist”. Besides, the “6 Hz model, animals protected” value in [7] (30 mg/kg i.p. (highest dose tested)) is listed as 7 out of 8. For the same molecule, the “6 Hz model, mice protected” value in data set [7] ([…] i.p.) is recorded as 4 out of 8. For the same molecule, the “Response in 6 Hz model (in words)” value in [7] (mice, i.p.) is recorded as “active”. In data set [8], the “% Inhibition, cyclic AMP, A1 (maximal efficacy)” value is 80–100%. Also, the “Corneal kindled mouse model EC50 (±SE)” value in data set [9] (at 1 h post injection) amounted to 1.79 ± 0.71 mg/kg. In addition, in [9] (mice), the “Response in corneal kindling model (in words)” value was “active”.

With `C[C@H](CSc1nc2ccccc2s1)Nc1nc(Cl)nc2c1ncn2[C@@H]1O[C@H](CO)[C@@H](O)[C@H]1O` [NNC-21-0136, N^6-[R-(2-benzothiazolyl)thio-2-propyl]-2-chloroadenosine], the dissociation constant Kd in data set [10] was 1.16 nM.

On to `CC(C)[C@H](Nc1nc(Cl)nc2c1ncn2[C@H]1[C@H](O)[C@H](O)[C@@H]2C[C@@H]21)C1CC1` [Compound 15, (1R,2R,3S,4R,5S)-4-(2-Chloro-6-((S)-1-cyclopropyl-2-methyl-propylamino)-9H-purin-9-yl)bicyclo[3.1.0]hexane-2,3-diol], for which the “AR subtype selectivity” value in data set [2] is reported as “moderately selective for the A1AR”.
